Test systems include CAKI-1; OVCAR-3; HCT-15; NCI-H226; SK-MEL-5; HT-29; SNB-19; A498; SN12C; M14; RXF 393; MCF7; MOLT-4; UACC-257; OVCAR-8; NCI-H23; LOX IMVI; SF-539; EKVX; Malme-3M.
Holding throughout (assay): NCI tumour cell line growth inhibition, 48 h

The values that follow come from ChEMBL document CHEMBL1201862, “PubChem BioAssay data set” (2004).

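Dose response: 5 concentrations. Exposure: 48 h. Format: 96-well plates. Endpoint: linear interpolation; highest concentration if not reached. GI50: concentration for 50% inhibition of growth.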 Activity calls are given as the source filed them. Cut-off read from the data, not from the text of the source: active = GI50 up to about 1.1 µM and inactive = higher. A value given as a limit tells only on which side of the number the result lay.

Turning to `COC1/C=C/C=C(/C)Cc2cc(O)c(Cl)c(c2)N(C)C(=O)CC(OC(=O)C(C)C)C2(C)OC2C(C)C2CC1(O)NC(=O)O2` (centres undefined), the GI50 in the assay with CAKI-1 is 21.2 µM (inactive); in the assay with OVCAR-3 it was < 0.01 µM (active); in the assay on HCT-15, under 0.01 µM; with NCI-H226, > 100 µM (inactive); in the assay with SK-MEL-5, < 0.01 µM (active); in the assay on HT-29, < 0.01 µM (active). In addition, the GI50 with SNB-19, in the assay with A498, in the assay on SN12C, with M14, in the assay with RXF 393 and with MCF7 was < 0.01 µM (active) throughout. Also, the GI50 is < 0.01 µM (active) with MOLT-4; 4.89 µM (inactive) with UACC-257; < 0.01 µM (active) in the assay with OVCAR-8; < 0.01 µM (active) with NCI-H23; < 0.01 µM (active) with LOX IMVI; < 0.01 µM (active) with SF-539.
With `CC(C)N/C(N)=N/C#N`, the GI50 with EKVX was > 100 µM (inactive); in the assay on CAKI-1, > 100 µM (inactive); in the assay with OVCAR-3, > 100 µM (inactive); in the assay with HCT-15, over 100 µM; in the assay with NCI-H226 it was > 100 µM (inactive); in the assay with HT-29, > 100 µM (inactive). Further, the GI50 in the assay with SNB-19, with A498, in the assay with SN12C, in the assay with M14, in the assay with Malme-3M and with MOLT-4 was > 100 µM (inactive) in each case. Further, the GI50 with UACC-257, in the assay with OVCAR-8, in the assay on LOX IMVI and with SF-539 was > 100 µM (inactive) throughout.
In the case of `CCC(/C=C/c1ccccc1)=N\Nc1ccc(Cl)c(Cl)c1`, the GI50 in the assay on EKVX is 30.3 µM (inactive); in the assay with CAKI-1 it was 34.9 µM (inactive); in the assay with OVCAR-3, 25.7 µM (inactive); with HCT-15, 29.7 µM; in the assay on NCI-H226 it was 21.5 µM (inactive); in the assay on SK-MEL-5, 13.8 µM (inactive). In addition, the GI50 in the assay with HT-29 is 35.8 µM (inactive); in the assay on SNB-19, 52.1 µM (inactive); in the assay on SN12C it was 24.4 µM (inactive); with M14, 56.4 µM (inactive); in the assay on RXF 393, 26.7 µM (inactive); with Malme-3M, 32.1 µM (inactive). Further, the GI50 with MCF7 was 28.7 µM (inactive); in the assay on MOLT-4 it was 31 µM (inactive); in the assay with UACC-257 it was 31.6 µM (inactive); with OVCAR-8, 16 µM (inactive); in the assay with NCI-H23, 30.9 µM (inactive); in the assay on LOX IMVI, 22.8 µM (inactive). Also, the GI50 in the assay on SF-539 is 25.8 µM (inactive).
In the case of `O=C1CN(c2cccc(C(F)(F)F)c2)C(=O)CN1CCN1CC(=O)N(c2cccc(C(F)(F)F)c2)CC1=O`, the GI50 in the assay with EKVX was > 100 µM (inactive); in the assay on HCT-15, over 100 µM; in the assay with SK-MEL-5 it was > 100 µM (inactive); in the assay on HT-29, > 100 µM (inactive); with SNB-19, > 100 µM (inactive); in the assay with SN12C, > 100 µM (inactive). For the same molecule, the GI50 in the assay on M14, in the assay with MCF7, in the assay with MOLT-4, in the assay with UACC-257, in the assay on OVCAR-8 and in the assay on SF-539 was > 100 µM (inactive) each time.
As for `C/C(=C\C(=O)Nc1ccc2[nH]nnc2c1)Nc1ccc2[nH]nnc2c1`, the GI50 with EKVX was > 100 µM (inactive); in the assay with CAKI-1 it was > 100 µM (inactive); in the assay with OVCAR-3, > 100 µM (inactive); with HCT-15, over 100 µM; with NCI-H226, > 100 µM (inactive); in the assay with SK-MEL-5, > 100 µM (inactive). The GI50 in the assay with HT-29, with SNB-19, in the assay with A498, with SN12C, with M14 and with RXF 393 was > 100 µM (inactive) each time. For the same molecule, the GI50 with Malme-3M, in the assay on MOLT-4, with UACC-257, with OVCAR-8, with NCI-H23 and in the assay with LOX IMVI was > 100 µM (inactive) throughout. In addition, the GI50 with SF-539 is > 100 µM (inactive).
Turning to `O=[N+]([O-])c1cnccc1-n1nnc2ccccc21`, the GI50 in the assay with EKVX was 22 µM (inactive); in the assay with OVCAR-3, 17.8 µM (inactive); in the assay on HCT-15, 18 µM; in the assay with NCI-H226 it was 18.9 µM (inactive); in the assay on SK-MEL-5, 13.9 µM (inactive); with HT-29 it was 28.3 µM (inactive). In addition, the GI50 with SNB-19 was 30.6 µM (inactive); with A498, 28.3 µM (inactive); in the assay on SN12C, 16 µM (inactive); in the assay on RXF 393, 17.3 µM (inactive); in the assay on Malme-3M, 17.3 µM (inactive); in the assay with MCF7, 13.4 µM (inactive). Further, the GI50 is > 48 µM (inactive) in the assay with MOLT-4; 14.7 µM (inactive) in the assay with UACC-257; 17.7 µM (inactive) in the assay with OVCAR-8; 18.2 µM (inactive) in the assay with NCI-H23; 12.6 µM (inactive) in the assay on LOX IMVI; 20.5 µM (inactive) in the assay with SF-539.
As for `Cc1ccccc1NC(=O)C(=O)C(C1OC(=O)c2ccccc21)[N+](=O)[O-]` (centres undefined), the GI50 with EKVX was > 100 µM (inactive); in the assay with CAKI-1 it was > 100 µM (inactive); in the assay on HCT-15, over 100 µM; in the assay with NCI-H226, > 100 µM (inactive); with SK-MEL-5, > 100 µM (inactive); with HT-29 it was > 100 µM (inactive). Moreover, the GI50 in the assay with SNB-19, in the assay with A498, in the assay on SN12C, in the assay with M14, in the assay on RXF 393 and in the assay with MOLT-4 was > 100 µM (inactive) throughout. In addition, the GI50 in the assay on UACC-257, with OVCAR-8, in the assay with NCI-H23, in the assay on LOX IMVI and in the assay on SF-539 was > 100 µM (inactive) in each case.
For `O=C1OCc2cccc3c2-c2c1cccc2C(=O)OC3`, the GI50 with EKVX was > 100 µM (inactive); in the assay with CAKI-1, > 100 µM (inactive); in the assay with OVCAR-3, > 100 µM (inactive); in the assay with HCT-15, over 100 µM; with SK-MEL-5, > 100 µM (inactive); with HT-29 it was > 100 µM (inactive). Besides, the GI50 in the assay on SNB-19, in the assay on M14, with RXF 393, in the assay with Malme-3M, with MOLT-4 and in the assay with OVCAR-8 was > 100 µM (inactive) each time. Further, the GI50 in the assay on NCI-H23 and with SF-539 was > 100 µM (inactive) throughout.
On to `BrC1=CN2C[n+]3cc(Br)c4ccccc4c3N=C2c2ccccc21`, for which the GI50 was 14 µM (inactive) with CAKI-1; 2.88 µM (inactive) in the assay on OVCAR-3; 58.6 µM in the assay with HCT-15; 3.34 µM (inactive) in the assay on SK-MEL-5; 11.8 µM (inactive) with HT-29; 6.67 µM (inactive) in the assay with SNB-19. Moreover, the GI50 in the assay with A498 is 24.9 µM (inactive); in the assay with SN12C it was 19.7 µM (inactive); in the assay on M14, 5.92 µM (inactive); in the assay on Malme-3M, 2.75 µM (inactive); with MCF7, 4.42 µM (inactive); in the assay on MOLT-4, 11 µM (inactive). Also, the GI50 is 22 µM (inactive) in the assay on UACC-257; 16.7 µM (inactive) in the assay with OVCAR-8; 21.1 µM (inactive) with NCI-H23; 12.4 µM (inactive) with LOX IMVI; 11.7 µM (inactive) in the assay with SF-539.
In the case of `O=C(c1ccccc1)N1C(=S)NC(=N/c2ccccc2)/C1=N\c1ccccc1`, the GI50 is > 100 µM (inactive) in the assay with EKVX; > 100 µM (inactive) in the assay on CAKI-1; over 100 µM in the assay on HCT-15; > 100 µM (inactive) in the assay on NCI-H226; > 100 µM (inactive) in the assay with SK-MEL-5; > 100 µM (inactive) in the assay with HT-29. In addition, the GI50 with SNB-19 is > 100 µM (inactive); in the assay on A498, > 100 µM (inactive); with SN12C it was > 100 µM (inactive); in the assay on RXF 393, 33.9 µM (inactive); in the assay on Malme-3M, > 100 µM (inactive); with MOLT-4 it was > 100 µM (inactive). In addition, the GI50 in the assay on UACC-257, in the assay with OVCAR-8, with NCI-H23, in the assay on LOX IMVI and with SF-539 was > 100 µM (inactive) in each case.
On to `CO/N=C(\C)c1ccc(Nc2nc3ccccc3c3occc23)cc1`, for which the GI50 in the assay with EKVX is 14 µM (inactive); in the assay with CAKI-1, 16.4 µM (inactive); in the assay with OVCAR-3, 30.2 µM (inactive); with HCT-15, 15.1 µM; in the assay on NCI-H226, 8.18 µM (inactive); in the assay on SK-MEL-5, 15.8 µM (inactive). The GI50 was 3.03 µM (inactive) with HT-29; 15.5 µM (inactive) in the assay on SNB-19; 16 µM (inactive) with A498; 15.2 µM (inactive) in the assay on SN12C; 16.3 µM (inactive) with M14; 14.6 µM (inactive) in the assay on Malme-3M. Also, the GI50 is 13.8 µM (inactive) in the assay with MCF7; 17.1 µM (inactive) in the assay on MOLT-4; 17.3 µM (inactive) in the assay with UACC-257; 16.7 µM (inactive) in the assay with OVCAR-8; 14.7 µM (inactive) in the assay with NCI-H23; 15.3 µM (inactive) in the assay on LOX IMVI. In addition, the GI50 with SF-539 is 14.2 µM (inactive).
Take `C=CC1(NC(=O)c2ccccc2)CCC(C(C)(C)C)CC1` (centres undefined): the GI50 is > 47.1 µM (inactive) in the assay with EKVX; 29.6 µM (inactive) with OVCAR-3; 32.4 µM in the assay with HCT-15; 27.8 µM (inactive) in the assay on NCI-H226; 19.9 µM (inactive) in the assay on SK-MEL-5; 23.9 µM (inactive) with HT-29. Further, the GI50 in the assay with SNB-19 was 30.1 µM (inactive); in the assay on A498, 48.2 µM (inactive); with SN12C it was 35.2 µM (inactive); with RXF 393 it was 49.3 µM (inactive); with Malme-3M, 34.2 µM (inactive); with MCF7, 30.8 µM (inactive). Moreover, the GI50 is 10.6 µM (inactive) in the assay on MOLT-4; 26.4 µM (inactive) in the assay on UACC-257; 49.7 µM (inactive) in the assay with OVCAR-8; 32 µM (inactive) with NCI-H23; 20.3 µM (inactive) with LOX IMVI; 44.3 µM (inactive) in the assay with SF-539.
